# Measurements published in US20220306691A1, “THERAPEUTIC PEPTIDES” (COHBAR, INC., priority 2019, published 2022).
# Where a SMILES comes first, the peptide text is derived from it. Where no end group is shown, it is not given here. [ ]: non-standard residue; d: D form.
# Experiments:
# 3T3-L1 adipocytes = assay: Free fatty acid levels in cultured 3T3-L1 adipocytes stimulated with isoproterenol; settings: for Free Fatty Acid Levels, Percent of Control Value (Percent Isoproterenol Control): test peptides 25 μM, 20-22 hours then 3 hours with isoproterenol (1 nM)
# Method: Mouse 3T3-L1 adipocytes were seeded at 3,000 cells per well in 96-well plates in Pre-adipocyte Medium (Zen-Bio, Durham, N.C.) and grown to confluence at 37° C. in a humidified atmosphere of 5% CO2/95% air. Two days after confluence, cells were placed in Adipocyte Differentiation Medium (Zen-Bio, Durham, N.C.) and cultured for three additional days at 37° C. in a humidified atmosphere of 5% CO2/95% air. The culture media was then replaced with Adipocyte Maintenance Medium (Zen-Bio) and the cells maintained for an additional 9-12 days at 37° C. in a humidified atmosphere of 5% CO2/95% air with partial medium replacement every other day. Following 12-15 days' differentiation, test peptides were added to a final concentration of 25 μM and incubated for 20-22 hours in Adipocyte Maintenance Medium. After 20-22 hours, isoproterenol (1 nM) was added to all wells except untreated controls and test peptides were replenished. Cells were incubated for a further 3 hours in Assay Buffer (Zen-Bio). Free fatty acid concentrations in the media were determined using a Free Fatty Acid Assay Kit (Zen-Bio) according to the manufacturer's instructions using a plate reader (540 nm). Absorbance values were corrected for untreated background and expressed relative to isoproterenol treated cells. Treatment with isoproterenol (1 nM) alone was used as the free fatty acid level stimulatory control. The relative standard deviation of the isoproterenol control was <10%.
# MDA-MB-231 cells [1] = assay: Caspase 3/7 activity (Caspase-Glo 3/7) in MDA-MB-231 cells; assay type: cell-based, human; settings: test peptides at 10 μM, 18 hours, relative to DMSO control
# Method: The effect of the peptides on cell death/survival can be assessed using a caspase-3 assay. Peptides were dissolved with DMSO at 10 mM stock. […] Staurosporine (Selleckchem) was dissolved with DMSO at 1 mM stock. Caspase-Glo 3/7 Assay Reagent was purchased from Promega (Madison, Wis.). MDA-MB-231 human breast cancer cell line was purchased from American Type Culture Collection (Manassas, Va.). MDA-MB-231 cells were grown in DMEM Medium supplemented with 10% FBS. 100 μg/ml penicillin and 100 μg/ml streptomycin were added to the culture medium. […] 25 μl of Caspase-Glo 3/7 Assay Reagent was added to each well and incubated at 37° C., 5% CO2 for 1 hour. Luminescence for each sample well on the plate was measured by Envision 2104 Multilabel Reader (PerkinElmer, Santa Clara, Calif.). Activity was calculated relative to DMSO control.
# MCF-7 cells = assay: Cell viability, MTS assay in MCF-7 cells; settings: for MTS Assay (cell viability), Percent of Control Activity: human, 72 hours, 10 µM
# Method: Peptides and reference compound staurosporine (Selleckchem) were dissolved with DMSO at 10 mM stock. CellTiter 96® AQueous One Solution Reagent (MTS assay reagent) was purchased from Promega (Madison, Wis.). MCF-7 human breast cancer cell line was purchased from American Type Culture Collection (Manassas, Va.). MCF-7 cells were grown in EMEM Medium supplemented with 10% FBS and 0.01 mg/ml human recombinant insulin. 100 μg/ml penicillin and 100 μg/ml streptomycin were added to the culture medium. […] 5 μl of CellTiter 96® AQueous One Solution Reagent (MTS assay reagent) was added to each well and incubated at 37° C., 5% CO2 for 5 hours. Absorbance at 492 nm was recorded by Envision 2104 Multilabel Reader. Treatment with DMSO alone was used as the cell viability activity control.
# MDA-MB-231 cells [2] = assay: Cell viability, MTS assay in MDA-MB-231 cells; assay type: cell-based, human; settings: for MTS Assay (cell viability), Percent of Control Activity: human, 72 hours
# Method: Test compounds and reference compound staurosporine (Selleckchem) were all dissolved with DMSO at 10 mM stock. […] Activity was calculated relative to DMSO control. […] Cell viability was 3% of the DMSO control value for Staurosporine (10 uM).
Compound,"Free Fatty Acid Levels, Percent of Control Value (Percent Isoproterenol Control) (3T3-L1 adipocytes)",also measured
3 (LACFRCEIVVGSWCWSLS) [compound 3],109%,–
4 (ACFRCEIVVGSWCWSLS; not fully specified; cysteine pairing not given here) [compound 4],116%,–
5 ([dA]CFRCEIVVGSWCWSLS; cysteine pairing not given here) [compound 5],113%,–
8 (NIVVGKRLIIKVDATMDFT; not fully specified) [compound 8],81%,–
9 (NIVVGKRLIIKVD[dA]TMDFT) [compound 9],103%,–
10 (NIVV[dA]KRLIIKVDATMDFT) [compound 10],91%,–
13 (WWVSEPHCVVVNM) [compound 13],109%,–
14 (WWVSEPHCVVVN) [compound 14],102%,–
15 (WVSEPHCVVVN) [compound 15],97%,–
18 (VHHRILTVIYKLRPKH) [compound 18],75%,–
19 (HHRILTVIYKLRPKH) [compound 19],78%,–
20 (HRILTVIYKLRP[dA]H) [compound 20],27%,–
23 (VITFIWSCTKIFGA) [compound 23],128%,–
24 (VITFIWSCTKIFG) [compound 24],90%,–
25 (VITFIWSCTKIF) [compound 25],115%,–
CC[C@H](C)[C@H](NC(=O)[C@H](CCC(=O)O)NC(=O)[C@H](CS)NC(=O)[C@H](CCCNC(=N)N)NC(=O)[C@H](Cc1ccccc1)NC(=O)[C@H](CS)NC(=O)[C@H](C)NC(=O)[C@H](CC(C)C)NC(=O)[C@@H](N)CCSC)C(=O)N[C@H](C(=O)N[C@H](C(=O)NCC(=O)N[C@@H](CO)C(=O)N[C@@H](Cc1c[nH]c2ccccc12)C(=O)N[C@@H](CS)C(=O)N[C@@H](Cc1c[nH]c2ccccc12)C(=O)N[C@@H](CO)C(=O)N[C@@H](CC(C)C)C(=O)N[C@@H](CO)C(=O)O)C(C)C)C(C)C [compound 2] (H-MLACFRCEIVVGSWCWSLS-OH; N-terminus and C-terminus assumed),114%,"Caspase 3/7 Activity, Percent of Control Activity (MDA-MB-231 cells [1]): 95%; MTS Assay (cell viability), Percent of Control Activity (MCF-7 cells): 55%; MTS Assay (cell viability), Percent of Control Activity (MDA-MB-231 cells [2]): 78%"
"CN[C@@H]1C[C@H]2O[C@@](C)([C@@H]1OC)n1c3ccccc3c3c4c(c5c6ccccc6n2c5c31)C(=O)NC4 [staurosporine, reference compound]",–,"Cell viability, % of the background corrected DMSO control value (MCF-7 cells; MCF-7 cells, staurosporine 10 uM, positive control): < 5%; Cell viability, % of the DMSO control value (MDA-MB-231 cells [2]; MDA-MB-231 cells, Staurosporine 10 uM, positive control): 3%"
Insulin [reference compound],–,"Free fatty acid levels, % of the isoproterenol control value (3T3-L1 adipocytes; insulin 100 nM, positive control): < 5%"
MNIVVGKRLIIKVDATMDFT [compound 7],94%,"Caspase 3/7 Activity, Percent of Control Activity (MDA-MB-231 cells [1]): 73%; MTS Assay (cell viability), Percent of Control Activity (MCF-7 cells): 59%; MTS Assay (cell viability), Percent of Control Activity (MDA-MB-231 cells [2]): 75%"
MVHHRILTVIYKLRPKH [compound 17],88%,"Caspase 3/7 Activity, Percent of Control Activity (MDA-MB-231 cells [1]): 74%; MTS Assay (cell viability), Percent of Control Activity (MCF-7 cells): 60%; MTS Assay (cell viability), Percent of Control Activity (MDA-MB-231 cells [2]): 82%"
MVITFIWSCTKIFGA [compound 22],133%,"Caspase 3/7 Activity, Percent of Control Activity (MDA-MB-231 cells [1]): 69%; MTS Assay (cell viability), Percent of Control Activity (MCF-7 cells): 58%; MTS Assay (cell viability), Percent of Control Activity (MDA-MB-231 cells [2]): 81%"
MWWVSEPHCVVVNM [compound 12],112%,"Caspase 3/7 Activity, Percent of Control Activity (MDA-MB-231 cells [1]): 56%; MTS Assay (cell viability), Percent of Control Activity (MCF-7 cells): 63%; MTS Assay (cell viability), Percent of Control Activity (MDA-MB-231 cells [2]): 78%"
